Measurements from PubChem BioAssay (NCI).
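Exposure lasted 48 hours, with cells grown in 96-well plates and compounds tested at five concentrations. TGI: total growth inhibition.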

Experiments:
Assay in all cases: DTP human tumour cell line panel, 48 h
[1] = test system: RXF 393 renal
[2] = test system: NCI-H23 lung
[3] = test system: HL-60(TB) leukemia
[4] = test system: OVCAR-3 ovarian
[5] = test system: RPMI-8226 leukemia
[6] = test system: COLO 205 colon
[7] = test system: SK-MEL-5 melanoma
[8] = test system: CAKI-1 renal
[9] = test system: UO-31 renal
[10] = test system: M14 melanoma
[11] = test system: SNB-75 CNS
[12] = test system: MALME-3M melanoma
[13] = test system: NCI-H522 lung
[14] = test system: SR leukemia
[15] = test system: A549 NSCLC
[16] = test system: OVCAR-4 ovarian
[17] = test system: HOP-18 NSCLC
[18] = test system: DMS 114 small cell lung
[19] = test system: SN12C renal
[20] = test system: HCT-15 colon
[21] = test system: A498 renal
[22] = test system: DLD-1 colon
[23] = test system: CCRF-CEM leukemia
[24] = test system: HCT-116 colon
[25] = test system: SK-MEL-2 melanoma
[26] = test system: 786-0 renal
[27] = test system: NCI-H460 lung
[28] = test system: SNB-19 CNS
[29] = test system: SF-268 CNS
[30] = test system: SK-MEL-28 melanoma
[31] = test system: DMS 273 small cell lung
[32] = test system: HT29 colon
[33] = test system: LXFL 529 NSCLC
[34] = test system: LOX IMVI melanoma
[35] = test system: HOP-62 NSCLC
[36] = test system: SK-OV-3 ovarian
[37] = test system: SNB-78 CNS
[38] = test system: OVCAR-5 ovarian
[39] = test system: SF-295 CNS
[40] = test system: HCC-2998 colon
[41] = test system: SW-620 colon
[42] = test system: KM20L2 colon
[43] = test system: TK-10 renal
[44] = test system: UACC-257 melanoma
[45] = test system: OVCAR-8 ovarian
[46] = test system: K-562 leukemia
[47] = test system: IGROV1 ovarian
[48] = test system: EKVX NSCLC
[49] = test system: U251 CNS
[50] = test system: UACC-62 melanoma
[51] = test system: MOLT-4 leukemia
[52] = test system: KM12 colon
[53] = test system: ACHN renal
[54] = test system: NCI-H226 lung
[55] = test system: XF 498 CNS
[56] = test system: SF-539 CNS
[57] = test system: HOP-92 NSCLC
[58] = test system: M19-MEL melanoma

O=C1C(=O)C2(CC1S(=O)(=O)c1ccccc1)c1ccccc1-c1ccccc12 (stereo not drawn)
TGI [1]: 35.6 µM
TGI [2]: 30.2 µM
TGI [3]: 58 µM
TGI [4]: > 10 µM
TGI [5]: 58.9 µM
TGI [6]: 26.1 µM
TGI [7]: 28.2 µM
TGI [8]: 61.6 µM
TGI [9]: 47 µM
TGI [10]: 28.4 µM
TGI [11]: > 100 µM
TGI [12]: > 10 µM
TGI [13]: 43.1 µM
TGI [14]: 50 µM
TGI [15]: 63.7 µM
TGI [16]: > 100 µM
TGI [17]: > 10 µM
TGI [18]: 53.3 µM
TGI [19]: 78.1 µM
TGI [20]: 34.6 µM
TGI [21]: 34.8 µM
TGI [22]: 66.1 µM
TGI [23]: 58.2 µM
TGI [24]: 31.9 µM
TGI [25]: 33.8 µM
TGI [26]: 82.5 µM
TGI [27]: 36.2 µM
TGI [28]: 40.4 µM
TGI [29]: 76.7 µM
TGI [30]: 35.8 µM
TGI [31]: 36.2 µM
TGI [32]: 59.7 µM
TGI [33]: 31 µM
TGI [34]: 34.5 µM
TGI [35]: 44 µM
TGI [36]: > 100 µM
TGI [37]: 45.6 µM
TGI [38]: 46.5 µM
TGI [39]: 37.7 µM
TGI [40]: 30.1 µM
TGI [41]: 85.1 µM
TGI [42]: > 100 µM
TGI [43]: 68.9 µM
TGI [44]: 33 µM
TGI [45]: 34.5 µM
TGI [46]: 59.3 µM
TGI [47]: 47.9 µM
TGI [48]: 72.8 µM
TGI [49]: 34.3 µM
TGI [50]: 31.9 µM
TGI [51]: 50.5 µM
TGI [52]: 33.9 µM
TGI [53]: 92 µM
TGI [54]: 82.6 µM

Cc1ccc2ccc(-c3ccccc3)c3c2c1C(=O)c1ccccc1C3=O
TGI [1]: > 100 µM
TGI [2]: > 100 µM
TGI [3]: > 100 µM
TGI [4]: > 100 µM
TGI [5]: > 100 µM
TGI [6]: > 100 µM
TGI [7]: > 100 µM
TGI [9]: > 100 µM
TGI [10]: > 100 µM
TGI [11]: 68.7 µM
TGI [12]: > 100 µM
TGI [13]: > 100 µM
TGI [14]: > 100 µM
TGI [15]: > 100 µM
TGI [55]: 99.1 µM
TGI [17]: > 100 µM
TGI [18]: > 100 µM
TGI [19]: > 100 µM
TGI [21]: > 100 µM
TGI [22]: > 100 µM
TGI [23]: > 100 µM
TGI [24]: > 100 µM
TGI [25]: > 100 µM
TGI [26]: > 100 µM
TGI [28]: > 100 µM
TGI [29]: > 100 µM
TGI [56]: > 100 µM
TGI [30]: > 100 µM
TGI [31]: > 100 µM
TGI [32]: > 100 µM
TGI [33]: > 100 µM
TGI [34]: > 100 µM
TGI [35]: > 100 µM
TGI [36]: > 100 µM
TGI [37]: > 100 µM
TGI [38]: > 100 µM
TGI [57]: 74.4 µM
TGI [39]: > 100 µM
TGI [40]: > 100 µM
TGI [41]: > 100 µM
TGI [42]: > 100 µM
TGI [43]: > 100 µM
TGI [44]: > 100 µM
TGI [45]: > 100 µM
TGI [46]: > 100 µM
TGI [47]: > 100 µM
TGI [48]: > 100 µM
TGI [49]: > 100 µM
TGI [50]: > 100 µM
TGI [51]: > 100 µM
TGI [52]: > 100 µM
TGI [53]: > 100 µM
TGI [58]: > 100 µM
TGI [54]: > 100 µM
